These results are taken from paper PMC8608967, “KDS2010, a Newly Developed Reversible MAO-B Inhibitor, as an Effective Therapeutic Candidate for Parkinson’s Disease” (Neurotherapeutics, 2021).

One may read the IC50 as the concentration needed to halve the response being measured. One may read the melting point as the temperature, or range, at which the solid turns liquid.

For one series, the target named is T1, human recombinant MAO-B (hMAO-B) (Homo sapiens, UniProt P27338).
T1 construct: purchased Sigma Aldrich
T1 sequence (P27338 1-520): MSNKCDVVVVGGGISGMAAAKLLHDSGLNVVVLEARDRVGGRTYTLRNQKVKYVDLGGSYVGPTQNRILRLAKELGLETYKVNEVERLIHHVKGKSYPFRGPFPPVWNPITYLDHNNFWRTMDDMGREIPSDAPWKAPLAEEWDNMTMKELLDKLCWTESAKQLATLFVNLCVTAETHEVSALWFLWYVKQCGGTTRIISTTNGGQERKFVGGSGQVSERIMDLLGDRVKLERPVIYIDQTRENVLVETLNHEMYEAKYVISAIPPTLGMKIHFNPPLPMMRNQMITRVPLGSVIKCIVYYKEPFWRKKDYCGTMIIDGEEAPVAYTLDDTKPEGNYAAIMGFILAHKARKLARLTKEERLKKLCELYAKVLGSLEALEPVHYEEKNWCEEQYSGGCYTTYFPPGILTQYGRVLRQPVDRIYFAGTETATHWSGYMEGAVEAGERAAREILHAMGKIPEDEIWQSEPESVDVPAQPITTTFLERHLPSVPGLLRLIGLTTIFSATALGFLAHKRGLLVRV
The series can be described thus: In vitro MAO-B enzyme assay (H2O2 release, absorbance 570 nm). It counts as biochemical. The note with it: hMAO-B, substrate benzylamine; read-out: Inhibition (IC50) MAO-B.
Procedure: (§1) In brief, human recombinant MAO-A (hMAO-A) and MAO-B (hMAO-B) (Sigma Aldrich) were diluted in 50 mM phosphate buffer (~ 0.3 μg MAO-A protein/well or ~ 2.5 μg MAO-B protein/well), and the test compound was added in DMSO to a final concentration from 0.1 nM to 10 μM. The amount of hydrogen peroxide (H2O2) released after addition of enzyme substrate (p-tyramine for MAO-A or benzylamine for MAO-B) was quantified by measuring the absorbance increase at 570 nm on a microplate reader.
For the compound `NC(=O)CNCc1ccc(-c2cccc(OC(F)(F)F)c2)cc1` [Compound 17k], the IC50 was determined as 0.323 ± 0.088 µM.

With `CC[C@H](NCc1ccc(-c2ccc(C(F)(F)F)cc2)cc1)C(N)=O` [Compound 20j], the IC50 worked out at 0.242 ± 0.008 µM.

For `COc1cccc(-c2ccc(CN[C@@H](CC(C)C)C(N)=O)cc2)c1` [Compound 22m], the IC50 is above 10 µM.

Turning to `CCC(C)[C@H](NCc1ccc(-c2cccc(Cl)c2)cc1)C(N)=O` (some centres unmarked) [Compound 23f], the half-maximal inhibitory concentration (IC50) lay within 5 to 10 µM.

For the compound `COc1ccc(-c2ccc(CN[C@@H](C)C(N)=O)cc2)cc1` [Compound 18n], the IC50 was found to be 3.33 ± 0.054 µM.

Consider `NC(=O)CNCc1ccc(-c2cccc(C(F)(F)F)c2)cc1` [Compound 17i], for which the IC50 worked out at 0.999 ± 0.059 µM.

`CC[C@H](NCc1ccc(-c2ccc(OC(F)(F)F)cc2)cc1)C(N)=O` [Compound 20l]: the IC50 was found to be 0.099 ± 0.005 µM.

Regarding `NC(=O)CNCc1ccc(-c2ccc(C(F)(F)F)cc2)cc1` [Compound 17j], the IC50 was determined as 0.121 ± 0.08 µM.

For `CC(C)C[C@H](NCc1ccc(-c2ccc(C(F)(F)F)cc2)cc1)C(N)=O` [Compound 22j], the IC50 was found to be 5.3 ± 0.09 µM.

Turning to `CCC(C)[C@H](NCc1ccc(-c2ccc(Cl)cc2)cc1)C(N)=O` (some centres unmarked) [Compound 23g], the IC50 is above 10 µM.

In the case of `CC(C)C[C@H](NCc1ccc(-c2cccc(C(F)(F)F)c2)cc1)C(N)=O` [Compound 22i], the IC50 was above 10 µM.

For the compound `CCC(C)[C@H](NCc1ccc(-c2cccc(C(F)(F)F)c2)cc1)C(N)=O` (some centres unmarked) [Compound 23i], the IC50 is 5 to 10 µM.

Turning to `CC(C)C[C@H](NCc1ccc(-c2cccc(OC(F)(F)F)c2)cc1)C(N)=O` [Compound 22k], the IC50 was above 10 µM.

On to `CC(C)C[C@H](NCc1ccc(-c2cccc(F)c2)cc1)C(N)=O` [Compound 22c], for which the IC50 is above 10 µM.

For `NC(=O)CNCc1ccc(-c2ccc(OC(F)(F)F)cc2)cc1` [Compound 17l], the IC50 was determined as 0.137 ± 0.07 µM.

The series is the same for the next values; noted with them: selectivity for MAO-B isoform.
Turning to `NC(=O)CNCc1ccc(-c2cccc(OC(F)(F)F)c2)cc1` [Compound 17k], the “SI (selectivity index), IC50(MAO-A)/IC50(MAO-B)” value (shortened to “SI (selectivity index)”) is given as above 310.

With `CC[C@H](NCc1ccc(-c2ccc(C(F)(F)F)cc2)cc1)C(N)=O` [Compound 20j], the “SI (selectivity index)” value was above 413.

Take `COc1ccc(-c2ccc(CN[C@@H](C)C(N)=O)cc2)cc1` [Compound 18n]: the “SI (selectivity index)” value is reported as above 30.

Turning to `NC(=O)CNCc1ccc(-c2cccc(C(F)(F)F)c2)cc1` [Compound 17i], the “SI (selectivity index)” value is above 100.

For `CC[C@H](NCc1ccc(-c2ccc(OC(F)(F)F)cc2)cc1)C(N)=O` [Compound 20l], the “SI (selectivity index)” value is > 1,010.

`NC(=O)CNCc1ccc(-c2ccc(C(F)(F)F)cc2)cc1` [Compound 17j]: the “SI (selectivity index)” value is above 826.

Regarding `CC(C)C[C@H](NCc1ccc(-c2ccc(C(F)(F)F)cc2)cc1)C(N)=O` [Compound 22j], the “SI (selectivity index)” value is given as above 19.

Take `NC(=O)CNCc1ccc(-c2ccc(OC(F)(F)F)cc2)cc1` [Compound 17l]: the “SI (selectivity index)” value is above 730.

Still in this series, the particulars now being: substitution of CH3 with H at X.
In the case of `NC(=O)CNCc1ccc(-c2ccc(C(F)(F)F)cc2)cc1` [Compound 17j], the “fold increase in the IC50 for MAO-B inhibition versus 18j (KDS2010)” value worked out at 15 fold.

In another series the target is T2, human recombinant MAO-A (hMAO-A) (Homo sapiens, UniProt P21397).
T2 construct: purchased Sigma Aldrich
T2 sequence (P21397 1-527): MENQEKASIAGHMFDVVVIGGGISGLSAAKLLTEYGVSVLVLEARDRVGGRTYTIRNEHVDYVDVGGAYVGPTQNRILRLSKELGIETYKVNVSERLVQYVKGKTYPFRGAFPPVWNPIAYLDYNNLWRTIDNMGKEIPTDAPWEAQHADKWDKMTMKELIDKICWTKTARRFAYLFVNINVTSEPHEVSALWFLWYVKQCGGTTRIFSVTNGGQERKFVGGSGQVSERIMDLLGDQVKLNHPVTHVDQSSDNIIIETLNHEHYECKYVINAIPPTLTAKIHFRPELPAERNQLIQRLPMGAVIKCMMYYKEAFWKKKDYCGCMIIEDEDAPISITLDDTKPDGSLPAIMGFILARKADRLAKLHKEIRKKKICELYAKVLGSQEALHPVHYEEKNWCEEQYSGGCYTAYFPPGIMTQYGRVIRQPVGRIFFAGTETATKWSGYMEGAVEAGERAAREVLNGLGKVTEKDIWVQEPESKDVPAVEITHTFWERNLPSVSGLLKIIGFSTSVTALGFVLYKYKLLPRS
The series can be described thus: In vitro MAO-A enzyme assay (H2O2 release, absorbance 570 nm). The format is biochemical. The settings on record: substrate p-tyramine, read-out: Inhibition (IC50) MAO-A.
Procedure: as §1
Regarding `NC(=O)CNCc1ccc(-c2cccc(OC(F)(F)F)c2)cc1` [Compound 17k], the IC50 is above 100 µM.

As for `CC[C@H](NCc1ccc(-c2ccc(C(F)(F)F)cc2)cc1)C(N)=O` [Compound 20j], the IC50 is above 100 µM.

As to `COc1cccc(-c2ccc(CN[C@@H](CC(C)C)C(N)=O)cc2)c1` [Compound 22m], the IC50 is above 100 µM.

For `CCC(C)[C@H](NCc1ccc(-c2cccc(Cl)c2)cc1)C(N)=O` (some centres unmarked) [Compound 23f], the IC50 was above 100 µM.

On to `COc1ccc(-c2ccc(CN[C@@H](C)C(N)=O)cc2)cc1` [Compound 18n], for which the IC50 is above 100 µM.

In the case of `NC(=O)CNCc1ccc(-c2cccc(C(F)(F)F)c2)cc1` [Compound 17i], the half-maximal inhibitory concentration (IC50) was above 100 µM.

Regarding `CC[C@H](NCc1ccc(-c2ccc(OC(F)(F)F)cc2)cc1)C(N)=O` [Compound 20l], the IC50 is above 100 µM.

Turning to `NC(=O)CNCc1ccc(-c2ccc(C(F)(F)F)cc2)cc1` [Compound 17j], the IC50 was above 100 µM.

In the case of `CC(C)C[C@H](NCc1ccc(-c2ccc(C(F)(F)F)cc2)cc1)C(N)=O` [Compound 22j], the IC50 was above 100 µM.

As for `CCC(C)[C@H](NCc1ccc(-c2ccc(Cl)cc2)cc1)C(N)=O` (some centres unmarked) [Compound 23g], the IC50 is above 100 µM.

With `CC(C)C[C@H](NCc1ccc(-c2cccc(C(F)(F)F)c2)cc1)C(N)=O` [Compound 22i], the IC50 is above 100 µM.

For `CCC(C)[C@H](NCc1ccc(-c2cccc(C(F)(F)F)c2)cc1)C(N)=O` (some centres unmarked) [Compound 23i], the IC50 is above 100 µM.

As to `CC(C)C[C@H](NCc1ccc(-c2cccc(OC(F)(F)F)c2)cc1)C(N)=O` [Compound 22k], the IC50 was above 100 µM.

As to `CC(C)C[C@H](NCc1ccc(-c2cccc(F)c2)cc1)C(N)=O` [Compound 22c], the IC50 is above 100 µM.

Regarding `NC(=O)CNCc1ccc(-c2ccc(OC(F)(F)F)cc2)cc1` [Compound 17l], the IC50 is above 100 µM.

Tested on in a further series: not given
Assay: not given
Conditions: not given
Compound `NC(=O)CNCc1ccc(-c2cccc(OC(F)(F)F)c2)cc1` [Compound 17k] gave a melting point of 152 to 156 °C.

The compound `CC[C@H](NCc1ccc(-c2ccc(C(F)(F)F)cc2)cc1)C(N)=O` [Compound 20j] came in with a melting point of 253 to 256 °C.

Take `COc1cccc(-c2ccc(CN[C@@H](CC(C)C)C(N)=O)cc2)c1` [Compound 22m]: the melting point was 240 to 242 °C.

Compound `CCC(C)[C@H](NCc1ccc(-c2cccc(Cl)c2)cc1)C(N)=O` (some centres unmarked) [Compound 23f] gave a melting point of 248 to 250 °C.

As to `COc1ccc(-c2ccc(CN[C@@H](C)C(N)=O)cc2)cc1` [Compound 18n], the melting point fell in the range of 231 to 233 °C.

On to `NC(=O)CNCc1ccc(-c2cccc(C(F)(F)F)c2)cc1` [Compound 17i], for which the melting point was in the range of 168 to 169 °C.

`NC(=O)CNCc1ccc(-c2ccc(C(F)(F)F)cc2)cc1` [Compound 17j]: the melting point lay in the range of 255 to 256 °C.

`CC(C)C[C@H](NCc1ccc(-c2ccc(C(F)(F)F)cc2)cc1)C(N)=O` [Compound 22j] showed a melting point of 267 to 270 °C.

For `CCC(C)[C@H](NCc1ccc(-c2ccc(Cl)cc2)cc1)C(N)=O` (some centres unmarked) [Compound 23g], the melting point lay in the range of 260 to 262 °C.

For the compound `CC(C)C[C@H](NCc1ccc(-c2cccc(C(F)(F)F)c2)cc1)C(N)=O` [Compound 22i], the melting point lay in the range of 239 to 243 °C.

Take `CCC(C)[C@H](NCc1ccc(-c2cccc(C(F)(F)F)c2)cc1)C(N)=O` (some centres unmarked) [Compound 23i]: the melting point was 263 to 265 °C.

In turn, `CC(C)C[C@H](NCc1ccc(-c2cccc(OC(F)(F)F)c2)cc1)C(N)=O` [Compound 22k] came in with a melting point of 232 to 233 °C.

`CC(C)C[C@H](NCc1ccc(-c2cccc(F)c2)cc1)C(N)=O` [Compound 22c]: the melting point lay in the range of 264 to 265 °C.

Compound `NC(=O)CNCc1ccc(-c2ccc(OC(F)(F)F)cc2)cc1` [Compound 17l] had a melting point of 217 to 220 °C.
